Experimental data as given in ChEMBL document CHEMBL6096706, “Discovery of WDR5-MLL1 and HDAC Dual-Target Inhibitors for the Treatment of Acute Myeloid Leukemia” (J Med Chem, 2025).

Legend:
[1] = system: MV4-11; test: Induction of apoptosis in human MV4-11 cells assessed as viable cells at 200 nM incubated for 72 hrs by Annexin V/PI staining based flow cytometry analysis (reference value: 96.68%); assay type: functional; conditions: read-out: Activity
[2] = system: MV4-11; test: Antiproliferative activity against human MV4-11 cells assessed as growth inhibition at 0.1 uM measured after 72 hrs by CellTiterGlo assay; assay type: functional; conditions: read-out: GI
[3] = system: MV4-11; test: Antiproliferative activity against human MV4-11 cells assessed as growth inhibition at 0.05 uM measured after 72 hrs in presence of 0.05 uM of vorinostat by CellTiterGlo assay; assay type: functional; conditions: read-out: GI
[4] = system: MV4-11; test: Antiproliferative activity against human MV4-11 cells assessed as growth inhibition at 0.05 uM measured after 72 hrs in presence of 1 uM of vorinostat by CellTiterGlo assay; assay type: functional; conditions: read-out: GI
[5] = system: MV4-11; test: Antiproliferative activity against human MV4-11 cells assessed as growth inhibition at 0.1 uM measured after 72 hrs in presence of 0.5 uM of vorinostat by CellTiterGlo assay; assay type: functional; conditions: read-out: GI
[6] = system: MV4-11; test: Antiproliferative activity against human MV4-11 cells assessed as growth inhibition at 0.2 uM measured after 72 hrs in presence of 0.05 uM of vorinostat by CellTiterGlo assay; assay type: functional; conditions: read-out: GI
[7] = system: MV4-11; test: Antiproliferative activity against human MV4-11 cells assessed as growth inhibition at 0.2 uM measured after 72 hrs in presence of 0.2 uM of vorinostat by CellTiterGlo assay; assay type: functional; conditions: read-out: GI
[8] = system: MV4-11; test: Antiproliferative activity against human MV4-11 cells assessed as growth inhibition at 0.2 uM measured after 72 hrs in presence of 0.5 uM of vorinostat by CellTiterGlo assay; assay type: functional; conditions: read-out: GI
[9] = system: MV4-11; test: Antiproliferative activity against human MV4-11 cells assessed as growth inhibition at 2 uM measured after 72 hrs in presence of 0.05 uM of vorinostat by CellTiterGlo assay; assay type: functional; conditions: read-out: GI
[10] = system: MV4-11; test: Antiproliferative activity against human MV4-11 cells assessed as growth inhibition at 2 uM measured after 72 hrs in presence of 0.2 uM of vorinostat by CellTiterGlo assay; assay type: functional; conditions: read-out: GI
[11] = system: MV4-11; test: Antiproliferative activity against human MV4-11 cells assessed as growth inhibition at 2 uM measured after 72 hrs in presence of 1 uM of vorinostat by CellTiterGlo assay; assay type: functional; conditions: read-out: GI
[12] = system: MV4-11; test: Induction of apoptosis in human MV4-11 cells assessed as late apoptotic cells at 200 nM incubated for 72 hrs by Annexin V/PI staining based flow cytometry analysis (reference value: 6.42%); assay type: functional
[13] = system: MV4-11; test: Induction of apoptosis in human MV4-11 cells assessed as viable cells at 600 nM incubated for 72 hrs in presence of vorinostat by Annexin V/PI staining based flow cytometry analysis (reference value: 96.68%); assay type: functional; conditions: read-out: Activity
[14] = system: MV4-11; test: Induction of apoptosis in human MV4-11 cells assessed as early apoptotic cells at 600 nM incubated for 72 hrs in presence of vorinostat by Annexin V/PI staining based flow cytometry analysis (reference value: 0.76 %); assay type: functional
[15] = system: MV4-11; test: Induction of apoptosis in human MV4-11 cells assessed as necrotic cells at 600 nM incubated for 72 hrs in presence of vorinostat by Annexin V/PI staining based flow cytometry analysis (reference value: 2.61%); assay type: functional
[16] = target: T1, Protein deacetylase HDAC6 (Homo sapiens, UniProt Q9UBN7); test: Inhibition of HDAC6 (unknown origin) by fluorescence based assay
T1 sequence (Q9UBN7 whole entry): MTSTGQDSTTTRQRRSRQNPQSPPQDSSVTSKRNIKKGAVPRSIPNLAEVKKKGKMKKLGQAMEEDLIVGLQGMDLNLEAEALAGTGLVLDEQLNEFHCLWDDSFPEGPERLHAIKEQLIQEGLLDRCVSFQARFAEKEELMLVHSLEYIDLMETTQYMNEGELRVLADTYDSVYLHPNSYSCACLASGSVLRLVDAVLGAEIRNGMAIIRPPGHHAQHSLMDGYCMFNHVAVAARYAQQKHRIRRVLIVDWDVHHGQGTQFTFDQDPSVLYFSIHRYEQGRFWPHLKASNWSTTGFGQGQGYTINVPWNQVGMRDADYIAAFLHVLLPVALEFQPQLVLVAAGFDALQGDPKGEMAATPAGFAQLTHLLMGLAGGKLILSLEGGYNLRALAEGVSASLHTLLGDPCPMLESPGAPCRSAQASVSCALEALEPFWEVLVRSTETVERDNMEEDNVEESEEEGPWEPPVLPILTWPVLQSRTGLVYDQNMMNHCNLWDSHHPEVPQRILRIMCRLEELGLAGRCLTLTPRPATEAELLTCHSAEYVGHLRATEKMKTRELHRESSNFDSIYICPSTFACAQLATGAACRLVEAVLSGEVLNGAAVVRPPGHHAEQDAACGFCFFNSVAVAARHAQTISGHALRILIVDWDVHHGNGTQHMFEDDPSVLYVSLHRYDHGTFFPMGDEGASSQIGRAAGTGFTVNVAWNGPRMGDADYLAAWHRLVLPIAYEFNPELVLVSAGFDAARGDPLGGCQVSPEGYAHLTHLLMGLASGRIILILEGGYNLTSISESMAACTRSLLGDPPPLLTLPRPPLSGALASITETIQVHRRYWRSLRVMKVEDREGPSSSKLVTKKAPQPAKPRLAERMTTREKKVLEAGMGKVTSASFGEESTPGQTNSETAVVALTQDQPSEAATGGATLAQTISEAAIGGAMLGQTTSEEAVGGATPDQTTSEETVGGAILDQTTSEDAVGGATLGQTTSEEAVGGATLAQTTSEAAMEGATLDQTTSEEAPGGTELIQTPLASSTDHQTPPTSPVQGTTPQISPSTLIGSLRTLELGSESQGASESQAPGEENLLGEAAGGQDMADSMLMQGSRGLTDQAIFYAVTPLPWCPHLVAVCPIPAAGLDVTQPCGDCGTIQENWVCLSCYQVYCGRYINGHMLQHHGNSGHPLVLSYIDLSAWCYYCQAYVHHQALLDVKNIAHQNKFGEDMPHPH

[17] = system: MV4-11; test: Induction of apoptosis in human MV4-11 cells assessed as viable cells at 50 nmol/L incubated for 72 hrs by Annexin V/PI staining based flow cytometry analysis (reference value: 90.23%); assay type: functional; conditions: read-out: Activity
[18] = system: MV4-11; test: Induction of apoptosis in human MV4-11 cells assessed as late apoptotic cells at 50 nmol/L incubated for 72 hrs by Annexin V/PI staining based flow cytometry analysis (reference value: 5.14%); assay type: functional
[19] = system: MV4-11; test: Induction of apoptosis in human MV4-11 cells assessed as early apoptotic cells at 100 nmol/L incubated for 72 hrs by Annexin V/PI staining based flow cytometry analysis (reference value: 4.17 %); assay type: functional
[20] = system: MV4-11; test: Induction of apoptosis in human MV4-11 cells assessed as late apoptotic cells at 100 nmol/L incubated for 72 hrs by Annexin V/PI staining based flow cytometry analysis (reference value: 5.14%); assay type: functional
[21] = Toxicity in mouse implanted in human MV4-11 cells assessed as kidney damage at 10 to 30 mg/kg, ip administered daily for 17 days by H and E staining based analysis; assay type: organism-based; conditions: in vivo, 408 h, dose 10-30 mg/kg, time 17 day

`Cc1c(F)c(N)cc(C(=O)Nc2cc(-c3ccc(C(=O)N4CCOCC4)cc3)ccc2N2CCN(C)CC2)c1Cl` showed a viability at 0.2 µM [1] of 90.3%, an inhibition of growth at 0.1 µM [2] of 19.4% and an inhibition of growth at 0.05 µM [3] of 30.1%. It also gave an inhibition of growth at 0.05 µM [4] of 86.7%, an inhibition of growth at 0.1 µM [5] of 73.6% and an inhibition of growth at 0.2 µM [6] of 36.8%. It also gave an inhibition of growth at 0.2 µM [7] of 48%, an inhibition of growth at 0.2 µM [8] of 74.7% and an inhibition of growth at 2 µM [9] of 55.9%. For the same compound, the inhibition of growth at 2 µM [10] was 72.3%, the inhibition of growth at 2 µM [11] was 95.6% and the Activity [12] was 1.08%. The viability at 0.6 µM [13] was 9.67%, the Activity [14] was 69.5% and the Activity [15] was 1.55%.

`Cc1c(F)c(N)cc(C(=O)Nc2cc(-c3ccc(C(=O)NCc4ccc(/C=C/C(=O)NO)cc4)cc3)ccc2N2CCN(C)CC2)c1Cl` gave an IC50 [16] of 46 nM, a viability at 0.05 µM [17] of 75.7% and an Activity [18] of 10.86%. For the same compound, the Activity [19] was 19.42%, the Activity [20] was 7.14% and the Activity [21] was “Non-toxic”.
